Test results reported in patent EP4610269A1, “UROKINASE PLASMINOGEN ACTIVATOR SURFACE RECEPTOR (UPAR) LIGANDS FOR DIAGNOSTIC OR THERAPEUTIC USE” (3B Pharmaceuticals GmbH, priority 2024, dated 2025).
pIC50: −log10 of the molar value. Where a SMILES comes first, the peptide text is derived from it. Bridges are numbered along the chain shown (N, C = ends). [ ]: non-standard residue; d: D form. The star is where a group is joined. DOTA = O=C(O)CN1CCN(CC(=O)O)CCN(CC(=O)*)CCN(CC(=O)O)CC1; Phe(4-Cl) = N[C@@H](Cc1ccc(Cl)cc1)C(=O)O; Pro(cis-4-F) = O=C(O)[C@@H]1C[C@H](F)CN1; Hyp = O=C(O)[C@@H]1C[C@@H](O)CN1; Pentanoyl(4-Me) = CC(C)CCC(=O)*; Cit = NC(=O)NCCC[C@H](N)C(=O)O; NMeL = CN[C@@H](CC(C)C)C(=O)O; Butoxycarbonyl = CCCCOC(=O)*; hCys = N[C@@H](CCS)C(=O)O; Nva = CCC[C@H](N)C(=O)O; Pentanoyl = CCCCC(=O)*; Aib = CC(C)(N)C(=O)O

Legend:
[1] = target: T1, uPAR-expressing HEC-265 human endometrial adenocarcinoma cells (Homo sapiens, UniProt Q03405); assay: Competitive FACS binding assay; conditions: pIC50 category of FACS binding
T1 construct: Cell surface uPAR-expressing HEC-265 human endometrial adenocarcinoma cells; host or cells: HEC-265
Procedure, shortened: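 Competitive displacement of a 10 nM biotinylated peptide from HEC-265 cells (1 h, 4 °C, PBS/1% BSA), detected via APC-streptavidin by flow cytometry. pIC50 from four-parameter logistic fit of median fluorescence versus concentration.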

human uPAR (uPAR-Fc) = target: T2, human uPAR (uPAR-Fc) (Homo sapiens, UniProt Q03405); assay: Surface plasmon resonance (SPR) assay, single cycle kinetics; type: binding; conditions: pKD category for uPAR SPR activity assay; uPAR-Fc on Protein A-Chip, 25°C; read-out: pKD CAT (converted)
T2 construct: comprising amino acids Leu23-Arg303 according to UniProt entry Q03405.1; purchased R&D Systems 10378-UK-100
Procedure, shortened: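 uPAR-Fc (Leu23-Arg303 extracellular domains, human IgG1 Fc) captured on Protein A chip to ~2000 RU; single-cycle kinetics at 25°C in HEPES running buffer pH 7.4 with 0.1% DMSO. KD from double-referenced sensorgrams fitted to 1:1 Langmuir model, reported as pKD.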

T2 sequence (Q03405 23-303): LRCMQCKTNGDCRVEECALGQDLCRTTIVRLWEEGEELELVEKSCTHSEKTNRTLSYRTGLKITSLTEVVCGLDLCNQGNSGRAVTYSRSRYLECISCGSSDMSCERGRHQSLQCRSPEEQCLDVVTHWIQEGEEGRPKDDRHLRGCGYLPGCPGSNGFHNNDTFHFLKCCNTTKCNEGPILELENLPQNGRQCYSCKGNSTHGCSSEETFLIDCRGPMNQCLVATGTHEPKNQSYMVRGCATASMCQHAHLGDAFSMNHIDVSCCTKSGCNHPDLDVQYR
T1 sequence (Q03405 23-335): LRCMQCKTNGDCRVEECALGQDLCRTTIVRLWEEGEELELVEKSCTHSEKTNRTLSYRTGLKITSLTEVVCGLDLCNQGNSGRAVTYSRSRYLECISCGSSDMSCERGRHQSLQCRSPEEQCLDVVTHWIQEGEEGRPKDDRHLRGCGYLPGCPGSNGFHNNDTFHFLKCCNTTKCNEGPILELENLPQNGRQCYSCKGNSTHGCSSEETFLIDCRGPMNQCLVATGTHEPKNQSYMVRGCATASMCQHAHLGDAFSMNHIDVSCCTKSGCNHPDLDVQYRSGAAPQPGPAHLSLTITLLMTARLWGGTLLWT

| Structure (SMILES) | pIC50 [1] | Kd (human uPAR (uPAR-Fc)) |
| --- | --- | --- |
| CCCCC(=O)N[C@H]1CSSC[C@@H](C(N)=O)NC(=O)[C@H](CCC)NC(=O)[C@H]([C@@H](C)CC)NC(=O)C(C)(C)NC(=O)[C@@H]2CCCN2C(=O)[C@H](Cc2ccccc2)NC(=O)[C@H](Cc2ccc(O)cc2)NC(=O)[C@H](CCCCNC(=O)CN2CCN(CC(=O)O)CCN(CC(=O)O)CCN(CC(=O)O)CC2)NC(=O)[C@H](CCCNC(N)=O)NC1=O [UPAR-299, Pent-[Cys-Cit-Lys(DOTA)-Tyr-Phe-Pro-Aib-Ile-Nva-Cys]-NH2] (Pentanoyl-C[Cit]K(DOTA)YFP[Aib]I[Nva]C-NH2; disulfide 1-10) | ≥ 8.00 | < 1.58 nM |
| CCCCC(=O)N[C@H]1CCSSC[C@@H](C(N)=O)NC(=O)[C@H](CCC)NC(=O)[C@H]([C@@H](C)CC)NC(=O)[C@@H]2C[C@@H](O)CN2C(=O)[C@@H]2CCCN2C(=O)[C@H](Cc2ccccc2)NC(=O)[C@H](Cc2ccc(O)cc2)NC(=O)[C@H](CCC(N)=O)NC(=O)[C@H](CCCNC(=N)N)NC1=O [UPAR-300, Pent-[Hcy-Arg-Gln-Tyr-Phe-Pro-Hyp-Ile-Nva-Cys]-NH2] (Pentanoyl-[hCys]RQYFP[Hyp]I[Nva]C-NH2; disulfide 1-10) | 7.50 to 7.90 | 1.58 to 10 nM |
| CCCCOC(=O)N[C@H]1CSSC[C@@H](C(N)=O)NC(=O)[C@H](CCC)NC(=O)[C@H]([C@@H](C)CC)NC(=O)[C@@H]2C[C@@H](O)CN2C(=O)[C@@H]2C[C@H](F)CN2C(=O)[C@H](Cc2ccc(Cl)cc2)NC(=O)[C@H](Cc2ccc(O)cc2)NC(=O)[C@H](CCCCNC(=O)CN2CCN(CC(=O)O)CCN(CC(=O)O)CCN(CC(=O)O)CC2)NC(=O)[C@H](CCCNC(N)=O)NC1=O [UPAR-304, Butoc-[Cys-Cit-Lys(DOTA)-Tyr-Pcf-4Cfp-Hyp-Ile-Nva-Cys]-NH2] (Butoxycarbonyl-C[Cit]K(DOTA)Y[Phe(4-Cl)][Pro(cis-4-F)][Hyp]I[Nva]C-NH2; disulfide 1-10) | ≥ 8.00 | < 1.58 nM |

Continued, values first:

| pIC50 [1] | Kd (human uPAR (uPAR-Fc)) | Structure (SMILES) |
| --- | --- | --- |
| 7.50 to 7.90 | 1.58 to 10 nM | CCCCC(=O)N[C@H]1CSSC[C@@H](C(N)=O)NC(=O)[C@H](CCC)NC(=O)[C@H]([C@@H](C)CC)NC(=O)[C@@H]2C[C@@H](O)CN2C(=O)[C@H](CC(C)C)N(C)C(=O)[C@H](Cc2ccccc2)NC(=O)[C@H](Cc2ccc(O)cc2)NC(=O)[C@H](CCC(N)=O)NC(=O)[C@H](CCCNC(=N)N)NC1=O [UPAR-302, Pent-[Cys-Arg-Gln-Tyr-Phe-Nml-Hyp-Ile-Nva-Cys]-NH2] (Pentanoyl-CRQYF[NMeL][Hyp]I[Nva]C-NH2; disulfide 1-10) |
| ≤ 6.90 | > 100 nM | CC[C@H](C)[C@@H]1NC(=O)[C@H]2CCCN2C(=O)[C@@H]2CCCN2C(=O)[C@H](Cc2ccccc2)NC(=O)[C@H](Cc2ccc(O)cc2)NC(=O)[C@H](CCC(N)=O)NC(=O)[C@H](CCCNC(N)=O)NC(=O)[C@@H](NC(=O)CCC(C)C)CSSC[C@@H](C(N)=O)NC(=O)[C@H](CC(C)C)NC1=O [UPAR-305, iHex-[Cys-Cit-Gln-Tyr-Phe-Pro-pro-Ile-Leu-Cys]-NH2] ({Pentanoyl(4-Me)}-C[Cit]QYFP[dP]ILC-NH2; disulfide 1-10) |
| ≥ 8.00 | < 1.58 nM | CC[C@H](C)[C@@H]1NC(=O)[C@@H]2C[C@H](F)CN2C(=O)[C@@H]2CCCN2C(=O)[C@H](Cc2ccccc2)NC(=O)[C@H](Cc2ccc(O)cc2)NC(=O)[C@H](CCC(N)=O)NC(=O)[C@H](CCCNC(N)=O)NC(=O)[C@@H](NC(=O)CCC(C)C)CSSC[C@@H](C(N)=O)NC(=O)[C@H](CC(C)C)NC1=O [UPAR-307, iHex-[Cys-Cit-Gln-Tyr-Phe-Pro-4Cfp-Ile-Leu-Cys]-NH2] ({Pentanoyl(4-Me)}-C[Cit]QYFP[Pro(cis-4-F)]ILC-NH2; disulfide 1-10) |
| ≥ 8.00 | 1.58 to 10 nM | CCCCC(=O)N[C@H]1CSSC[C@@H](C(N)=O)NC(=O)[C@H](CCC)NC(=O)[C@H]([C@@H](C)CC)NC(=O)[C@@H]2C[C@@H](O)CN2C(=O)[C@@H]2CCCN2C(=O)[C@H](Cc2c[nH]c3ccccc23)NC(=O)[C@H](Cc2ccc(O)cc2)NC(=O)[C@H](CCC(N)=O)NC(=O)[C@H](CCCNC(=N)N)NC1=O [UPAR-308, Pent-[Cys-Arg-Gln-Tyr-Trp-Pro-Hyp-Ile-Nva-Cys]-NH2] (Pentanoyl-CRQYWP[Hyp]I[Nva]C-NH2; disulfide 1-10) |
